According to US10208033B2, “β-carboline, dihydro-β-carboline and tetrahydro-β-carboline alkaloid derivatives and preparation methods same and use in aspects of preventing and treating plant viruses, fungicides and insecticides” (NANKAI UNIVERSITY, priority 2013, dated 2019):
Read-outs that look alike come from different tables or passages of the source.

Assays:
Rhizoctonia cereali = experiment: Fungicidal (bactericidal) activity in vitro, PDA colony diameter; type: cell-based; conditions: 50 mg/kg
mosquito larvae = experiment: whole plant or invertebrate; conditions: 24 h
In short: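 Early fourth-instar Culex pipiens pallens larvae from an indoor colony, 10 per beaker, exposed to test compound at 5 ppm in water, diluted from a 1000 ppm acetone mother solution. Blank: water containing 0.5 mL test solvent.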

Fusarium fujikuroi = experiment: Fungicidal (bactericidal) activity in vitro, PDA colony diameter; type: cell-based; conditions: 50 mg/kg
cotton bollworms = experiment: whole plant or invertebrate; conditions: concentration 600 mg/kg
Description: Experimental method of cotton bollworms: feed and drug mixing method: measure 3 mL of prepared solution and add it to about 27 g of newly prepared feed, thereby obtaining needed concentration through dilution by 10 times.

Fusarium graminearumt = experiment: microbe, parasite or virus in culture; type: cell-based; conditions: 50 mg/kg
[1] = system: tobacco mosaic virus (TMV); experiment: Anti-TMV in vivo therapeutic effect; design: species or system tobacco mosaic virus (host Nicotiana tabacum L.cv.Xanthi NN)
[2] = system: tobacco mosaic virus (TMV); experiment: Anti-TMV in vivo inactivation; design: species or system tobacco mosaic virus (host Nicotiana tabacum L.cv.Xanthi NN)
Rhizoctonia solani = experiment: Fungicidal (bactericidal) activity in vitro, PDA colony diameter; type: cell-based; conditions: 50 mg/kg
potato late blight = experiment: microbe, parasite or virus in culture; type: cell-based
[3] = system: Colletotrichum orbiculare; experiment: Fungicidal (bactericidal) activity in vitro, PDA colony diameter; type: cell-based; conditions: 50 mg/kg
cucumber fusarium wilt = experiment: as above; type: cell-based
Sclerotinia scleotiorum = experiment: as above; type: cell-based; conditions: 50 mg/kg
corn borers = conditions: concentration 600 mg/kg
Cercospora arachidicola = experiment: Fungicidal (bactericidal) activity in vitro, PDA colony diameter; type: cell-based; conditions: 50 mg/kg
Alternaria solani = experiment: as above; type: cell-based; conditions: 50 mg/kg
Macrophoma kawatsukai = experiment: as above; type: cell-based; conditions: 50 mg/kg
Bipolaria maydis = experiment: organism not typed; type: cell-based; conditions: 50 mg/kg
[4] = system: tobacco mosaic virus (TMV); experiment: Anti-TMV in vivo protective effect; design: species or system tobacco mosaic virus (host Nicotiana tabacum L.cv.Xanthi NN)
Phytophthora capsici = experiment: Fungicidal (bactericidal) activity in vitro, PDA colony diameter; type: cell-based; conditions: 50 mg/kg
[5] = system: tobacco mosaic virus (TMV); experiment: Anti-TMV in vitro effect (half-leaf soaking); type: cell-based, tobacco mosaic virus (host Nicotiana tabacum L.cv.Xanthi NN)
armyworms = type: in vivo; conditions: concentration 600 mg/kg
Botrytis cinerea = experiment: Fungicidal (bactericidal) activity in vitro, PDA colony diameter; type: cell-based; conditions: 50 mg/kg

SMILES | Bactericidal activity (%) Rhizoctonia cereali (Rhizoctonia cereali) [%] | Mosquito larvae Mortality (%) (mosquito larvae; concentration 10 mg/kg) | Bactericidal activity (%) Fusarium fujikuroi (Fusarium fujikuroi) [%] | Cotton bollworm Mortality (%) (cotton bollworms) | Bactericidal activity (%) Fusarium graminearumt (Fusarium graminearumt) [%] | Relative inhibition rate (%) In vivo therapy ([1]; treatment dose 100 μg/mL) [%] | Relative inhibition rate (%) In vivo therapy ([1]; treatment dose 500 μg/mL) [%] | Relative inhibition rate (%) In vivo inactivation ([2]; treatment dose 100 μg/mL) [%] | Relative inhibition rate (%) In vivo inactivation ([2]; treatment dose 500 μg/mL) [%] | Bactericidal activity (%) Rhizoctonia solani (Rhizoctonia solani) [%] | Bactericidal activity (%) potato late blight (potato late blight) [%] | Bactericidal activity (%) Colletotrichum orbiculare [3] [%] | Bactericidal activity (%) Sclerotinia scleotiorum (Sclerotinia scleotiorum) [%] | Corn borer Mortality (%) (corn borers) | Bactericidal activity (%) Cercospora arachidicola (Cercospora arachidicola) [%] | Bactericidal activity (%) Alternaria solani (Alternaria solani) [%] | Bactericidal activity (%) Macrophoma kawatsukai (Macrophoma kawatsukai) [%] | Bactericidal activity (%) Bipolaria maydis (Bipolaria maydis) [%] | Relative inhibition rate (%) In vivo protection ([4]; treatment dose 100 μg/mL) [%] | Relative inhibition rate (%) In vivo protection ([4]; treatment dose 500 μg/mL) [%] | other results
C[C@@H]1N[C@H](C(=O)NN=Cc2ccco2)Cc2c1[nH]c1ccccc21 [Ic-18, (1S, 3S)—N′-(furan-2-methylene)-1-methyl-2,3,4,9-tetrahydropyridino [3,4-b] indol-3-formylhydrazine] | 68.6 | 25 | 28.6 | 20 | 6.9 | 9.3 | 44.2 | 18.2 | 54.6 | 32.9 | 36.0 | 33.3 | 64.7 | 15 | 52.9 | 35.0 | 69.4 | 20.0 | 11.5 | 47.5 | Bactericidal activity (%) Cucumber fusarium wilt (cucumber fusarium wilt): 11.5%; Bactericidal activity (%) Phytophthora capsici (Phytophthora capsici): 39.5%; Relative inhibition rate (%) In vitro activity ([5]; treatment dose 100 μg/mL): 15.4%; Relative inhibition rate (%) In vitro activity ([5]; treatment dose 500 μg/mL): 48.8%; Armyworm Mortality (%) (armyworms): 10%; Bactericidal activity (%) Botrytis cinerea (Botrytis cinerea): 81.8%
C[C@@H]1N[C@H](C(=O)NN=Cc2ncc[nH]2)Cc2c1[nH]c1ccccc21 [Ic-21, (1S, 3S)—N′-(imidazole-2-methylene)-1-methyl-2,3,4,9-tetrahydropyridino [3,4-b] indol-3-formylhydrazine] | 64.7 | 85 | 28.6 | 45 | 27.6 | 12.6 | 45.3 | 21.3 | 49.6 | 15.8 | 24.0 | 25.9 | 35.3 | 35 | 47.1 | 15.0 | 97.2 | 12.0 | 18.5 | 48.1 | Bactericidal activity (%) Cucumber fusarium wilt (cucumber fusarium wilt; 50 mg/kg): 34.6%; Bactericidal activity (%) Phytophthora capsici (Phytophthora capsici): 18.4%; Relative inhibition rate (%) In vitro activity ([5]; treatment dose 100 μg/mL): 0%; Relative inhibition rate (%) In vitro activity ([5]; treatment dose 500 μg/mL): 42.4%; Armyworm Mortality (%) (armyworms): 40%; Bactericidal activity (%) Botrytis cinerea (Botrytis cinerea): 36.4%
C/C=C/C=NNC(=O)[C@@H]1Cc2c([nH]c3ccccc23)[C@H](C)N1 [Ic-22, (1S, 3S)—N′-((E)-but-2-enylidene)-1-methyl-2,3,4,9-tetrahydropyridino [3,4-b] indol-3-formylhydrazine] | 64.7 | 85 | 14.3 | 20 | 20.7 | 0 | 33.2 | 8.5 | 47 | 6.6 | 32.0 | 22.2 | 41.2 | 50 | 29.4 | 30.0 | 52.8 | 36.0 | 6.7 | 37.1 | Bactericidal activity (%) Cucumber fusarium wilt (cucumber fusarium wilt; 50 mg/kg): 26.9%; Bactericidal activity (%) Phytophthora capsici (Phytophthora capsici): 31.6%; Relative inhibition rate (%) In vitro activity ([5]; treatment dose 100 μg/mL): 0%; Relative inhibition rate (%) In vitro activity ([5]; treatment dose 500 μg/mL): 35.2%; Armyworm Mortality (%) (armyworms): 40%; Bactericidal activity (%) Botrytis cinerea (Botrytis cinerea): 40.9%
CCCC=NNC(=O)[C@@H]1Cc2c([nH]c3ccccc23)[C@H](C)N1 [Ic-23, (1S, 3S)—N′-butylidene-1-methyl-2,3,4,9-tetrahydropyridino [3,4-b] indol-3-formylhydrazine] | 43.1 | 35 | 0.0 | 10 | 6.9 | 10.4 | 41.3 | 13.4 | 47.1 | 6.6 | 20.0 | 14.8 | 64.7 | 10 | 17.6 | 45.0 | 69.4 | 12.0 | 11.3 | 40.5 | Bactericidal activity (%) Cucumber fusarium wilt (cucumber fusarium wilt; 50 mg/kg): 19.2%; Bactericidal activity (%) Phytophthora capsici (Phytophthora capsici): 5.3%; Relative inhibition rate (%) In vitro activity ([5]; treatment dose 100 μg/mL): 7.8%; Relative inhibition rate (%) In vitro activity ([5]; treatment dose 500 μg/mL): 32.6%; Armyworm Mortality (%) (armyworms): 15%; Bactericidal activity (%) Botrytis cinerea (Botrytis cinerea): 9.1%
CCCCCCCC=NNC(=O)[C@@H]1Cc2c([nH]c3ccccc23)[C@H](C)N1 [Ic-24, (1S, 3S)—N′-octadien-1-methyl-2,3,4,9-tetrahydropyridino [3,4-b] indol-3-formylhydrazine] | 29.7 | 100 | 35.3 | 20 | 61.5 | 31.7 | 70.9 | 32.8 | 73.4 | 22.2 | 17.4 | 32.0 | 46.2 | 50 | 36.4 | 19.0 | 24.2 | 36.0 | 27.3 | 59.6 | Mosquito larvae Mortality (%) (mosquito larvae; concentration 5 mg/kg): 10%; Bactericidal activity (%) Cucumber fusarium wilt (cucumber fusarium wilt; 50 mg/kg): 9.1%; Bactericidal activity (%) Phytophthora capsici (Phytophthora capsici): 18.2%; Relative inhibition rate (%) In vitro activity ([5]; treatment dose 100 μg/mL): 23.2%; Relative inhibition rate (%) In vitro activity ([5]; treatment dose 500 μg/mL): 61.3%; Armyworm Mortality (%) (armyworms): 45%; Bactericidal activity (%) Botrytis cinerea (Botrytis cinerea): 44.4%
C[C@@H]1N[C@H](C(=O)NN=CC2CCCCC2)Cc2c1[nH]c1ccccc21 [Ic-25, (1S, 3S)—N′-(cyclohexylmethylene)-1-methyl-2,3,4,9-tetrahydropyridino [3,4-b] indol-3-formylhydrazine] | 29.7 | 100 | 41.2 | 20 | 30.8 | 30.4 | 62.8 | 36.3 | 75.8 | 5.6 | 17.4 | 24.0 | 21.2 | 55 | 0.0 | 19.0 | 33.3 | 36.0 | 25.7 | 69.2 | Mosquito larvae Mortality (%) (mosquito larvae; concentration 5 mg/kg): 10%; Bactericidal activity (%) Cucumber fusarium wilt (cucumber fusarium wilt; 50 mg/kg): 4.5%; Bactericidal activity (%) Phytophthora capsici (Phytophthora capsici): 9.1%; Relative inhibition rate (%) In vitro activity ([5]; treatment dose 100 μg/mL): 31.2%; Relative inhibition rate (%) In vitro activity ([5]; treatment dose 500 μg/mL): 59.6%; Armyworm Mortality (%) (armyworms): 45%; Bactericidal activity (%) Botrytis cinerea (Botrytis cinerea): 66.7%
